Test results from patent EP4733299A1, “SULFUR-CONTAINING FUSED RING COMPOUND, PHARMACEUTICAL COMPOSITION CONTAINING SAME, AND PREPARATION METHOD THEREFOR AND USE THEREOF” (Shenzhen Braegen Pharmaceutical Co., Ltd., priority 2023, dated 2024).

biological target: T1, Aβ (Homo sapiens, UniProt P05067); test: In vivo validation: tail vein injection, then staining of brain sections; design: species or system 5xFAD mice; settings: 2 mg/kg tail vein injection; 0.5 hours after administration
T1 construct: tissue The Jackson Laboratory 034840; host or cells: brain of 5xFAD mice, compound injected in vivo, sections made afterwards
T1 sequence (P05067 672-713 limits assumed): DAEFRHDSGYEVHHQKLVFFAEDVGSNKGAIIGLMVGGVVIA
Method: In vivo validation of the compounds was performed using 8-month-old wild-type mice (Jiangsu Aniphe Biolaboratory Inc), 12-month-old 5xFAD mice (The Jackson Laboratory; Catalog No.: 034840), 6-month-old Tau P301S mice (The Jackson Laboratory; Catalog No.: 008169), and rotenone-treated α-Syn A53T mice (The Jackson Laboratory; Catalog No.: 017682). All mice were stratified by sex and randomly divided into groups, and the compounds were administered via tail vein injection at a dose of 2 mg/kg. Tissues were harvested and mouse brain sections were prepared 0.5 hours after administration, followed by staining with anti-Aβ (Biolegend; Catalog No.: SIG-39300) or AT8 (Thermo Fisher; Catalog No.: MN1020) together with the compounds, respectively.

Compound | specific binding to Aβ
Cc1cc2nc(/C=C/c3ccc(O)c(N)c3)sc2cc1N(C)CCOCCF [Compound C, (E)-2-amino-4-(2-(6-((2-(2-fluoroethoxy)ethyl)(methyl)amino)-5-methylbenzo[d]thiazol-2-yl)vinyl)phenol] | no specific binding
COc1c(/C=C/c2nc3cc(C)c(N(C)CCOCCF)cc3s2)ccc(O)c1Br [Compound E, (E)-2-bromo-4-(2-(6-((2-(2-fluoroethoxy)ethyl)(methyl)amino)-5-methylbenzo[d]thiazol-2-yl)vinyl)-3-methoxyphenol] | no specific binding
CCN(CCOCCF)c1cc2sc(/C=C/c3ccc(O)c(Br)c3)nc2cc1C [Compound R, (E)-2-bromo-4-(2-(6-(ethyl(2-(2-fluoroethoxy)ethyl)amino)-5-methylbenzo[d]thiazol-2-yl)vinyl)phenol] | no specific binding
